Experimental data as given in patent publication US11306084B2, “Integrin antagonists” (Saint Louis University, priority 2016, dated 2022).
Where a name gives a salt, the structure may show the parent alone.

Key:
[1] = biological target: T1, Recombinant human integrin α5β1 (Homo sapiens, UniProt P05556+P08648); test: Solid Phase Receptor Assay (SPRA) for α5β1 function; type: binding; conditions: plate-bound human fibronectin
T1 construct: purchased R&D Systems 3230-A5
Method: A. Solid Phase Receptor Assay (SPRA) for α5β1 Function
Wells were washed 3 times with 150 μL TBS+ and then 150 μL of blocking buffer (TBS+ with 1% bovine serum albumin, Sigma A7906) was added. The plate was incubated for 1 hr at 37° C. and then washed 3× with TBS+ buffer. […] Compounds were diluted to 20 μM and then 1 μL was added to each well of the plate according to a standard template with each sample repeated in triplicate. After incubation for two hours at room temperature, the plate was washed 3× with 150 μL of TBS+ buffer. To each well, 50 μL of biotinylated anti-α5 antibody (R&D Systems, BAF1864) at 0.5 μg/mL in TBS+/0.1% BSA were added and the plate covered and incubated for 1 hr at room temperature. After washing the plate 3× with 150 μL of TBS+ buffer, 50 μL of streptavidin-conjugated horseradish peroxidase (R&D Systems, DY998) diluted in TBS+ blocking buffer were added to the wells and the plate incubated for 20 min at room temperature. The plate was washed 3× with TBS+ buffer followed by 50 μL of room temperature TMB substrate (Sigma, T4444) added to each well in the dark and the plate incubated for 25 min at room temperature. 25 μL of 1.0 M phosphoric acid was added as a stop solution and the plates were read at 450 nm using a Spectramax plate reader.

[2] = biological target: T2, Recombinant human integrin ανβ5 (Homo sapiens, UniProt P06756+P18084); test: Solid Phase Receptor Assay (SPRA) for ανβ5 function; type: binding; conditions: plate-bound human vitronectin; read-out: αvβ5 SPRA IC50
T2 construct: purchased R&D Systems 2528-AV
Method: D. Solid Phase Receptor Assay (SPRA) for ανβ5 Function
Wells were washed 3 times with 150 μL TBS+ and then 150 μL of blocking buffer (TBS+ with 1% bovine serum albumin, Sigma A7906) was added. The plate was incubated for 1 hr at 37° C. and then washed 3× with TBS+ buffer. […] Compounds were diluted to 20 μM and then 1 μL was added to each well of the plate according to a standard template with each sample repeated in triplicate. After incubation for two hours at room temperature, the plate was washed 3× with 150 μL of TBS+ buffer. To each well, 50 μl of biotinylated anti-αν antibody (R&D Systems, BAF1219) at 0.5 μg/mL in TBS+/0.1% BSA at 0.5 μg/mL were added and the plate covered and incubated for 1 hr at room temperature. After washing the plate 3 with 150 μL of TBS+ buffer, 50 μL of streptavidin-conjugated horseradish peroxidase (R&D Systems, DY998) diluted in TBS+ blocking buffer were added to the wells and the plate incubated for 20 min at room temperature. The plate was washed 3× with TBS+ buffer followed by 50 μL of TMB substrate (Sigma T4444) added to each well in the dark and the plate incubated for 5 min at room temperature. 25 μL of 1.0 M phosphoric acid was added as a stop solution and the plates were read at 450 nm using a Spectramax plate reader.

T1 sequence (P08648 42-995 limits assumed): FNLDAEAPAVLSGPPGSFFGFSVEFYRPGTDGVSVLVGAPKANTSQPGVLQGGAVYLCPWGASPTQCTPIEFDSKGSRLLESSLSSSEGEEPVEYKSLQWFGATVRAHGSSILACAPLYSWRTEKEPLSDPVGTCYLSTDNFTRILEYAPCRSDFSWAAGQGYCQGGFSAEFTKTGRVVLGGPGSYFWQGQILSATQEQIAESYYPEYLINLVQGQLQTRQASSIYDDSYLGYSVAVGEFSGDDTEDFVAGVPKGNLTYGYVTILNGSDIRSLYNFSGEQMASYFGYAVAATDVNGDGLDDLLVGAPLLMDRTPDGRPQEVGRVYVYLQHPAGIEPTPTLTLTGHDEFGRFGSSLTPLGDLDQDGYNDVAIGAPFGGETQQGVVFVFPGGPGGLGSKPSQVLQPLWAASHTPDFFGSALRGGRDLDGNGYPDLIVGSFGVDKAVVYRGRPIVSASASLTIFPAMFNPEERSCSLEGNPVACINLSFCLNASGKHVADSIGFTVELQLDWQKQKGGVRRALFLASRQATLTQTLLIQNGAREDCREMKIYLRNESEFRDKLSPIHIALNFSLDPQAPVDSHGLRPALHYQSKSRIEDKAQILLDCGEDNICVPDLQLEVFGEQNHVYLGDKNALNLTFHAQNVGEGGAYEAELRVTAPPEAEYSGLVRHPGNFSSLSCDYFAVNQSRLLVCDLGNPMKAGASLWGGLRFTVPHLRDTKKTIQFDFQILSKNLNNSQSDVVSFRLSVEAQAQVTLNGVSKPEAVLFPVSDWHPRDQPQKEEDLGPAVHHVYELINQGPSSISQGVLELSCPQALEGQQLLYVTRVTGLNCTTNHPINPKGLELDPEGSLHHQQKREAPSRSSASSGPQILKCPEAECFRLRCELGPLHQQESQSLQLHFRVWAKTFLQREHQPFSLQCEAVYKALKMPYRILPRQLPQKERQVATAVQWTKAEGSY
T1 sequence (P05556 21-728 limits assumed): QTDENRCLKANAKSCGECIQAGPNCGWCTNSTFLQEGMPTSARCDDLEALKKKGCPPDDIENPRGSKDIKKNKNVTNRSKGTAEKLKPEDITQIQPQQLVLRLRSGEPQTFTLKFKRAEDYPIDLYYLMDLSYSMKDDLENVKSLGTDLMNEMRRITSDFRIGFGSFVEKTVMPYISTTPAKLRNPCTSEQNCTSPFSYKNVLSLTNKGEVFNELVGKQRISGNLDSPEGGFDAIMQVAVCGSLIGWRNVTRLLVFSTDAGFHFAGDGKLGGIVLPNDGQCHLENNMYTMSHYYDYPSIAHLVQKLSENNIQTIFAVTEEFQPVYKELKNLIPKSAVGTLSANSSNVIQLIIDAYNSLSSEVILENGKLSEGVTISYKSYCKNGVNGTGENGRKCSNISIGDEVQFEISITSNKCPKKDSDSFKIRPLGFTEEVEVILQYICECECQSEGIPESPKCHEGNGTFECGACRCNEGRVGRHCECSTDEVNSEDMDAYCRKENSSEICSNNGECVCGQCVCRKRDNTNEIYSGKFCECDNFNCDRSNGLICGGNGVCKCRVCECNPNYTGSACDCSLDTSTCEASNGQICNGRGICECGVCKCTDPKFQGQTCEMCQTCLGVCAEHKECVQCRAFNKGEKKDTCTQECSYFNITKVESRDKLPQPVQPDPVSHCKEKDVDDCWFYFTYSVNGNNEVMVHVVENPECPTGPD
T2 sequence (P06756 31-992 limits assumed): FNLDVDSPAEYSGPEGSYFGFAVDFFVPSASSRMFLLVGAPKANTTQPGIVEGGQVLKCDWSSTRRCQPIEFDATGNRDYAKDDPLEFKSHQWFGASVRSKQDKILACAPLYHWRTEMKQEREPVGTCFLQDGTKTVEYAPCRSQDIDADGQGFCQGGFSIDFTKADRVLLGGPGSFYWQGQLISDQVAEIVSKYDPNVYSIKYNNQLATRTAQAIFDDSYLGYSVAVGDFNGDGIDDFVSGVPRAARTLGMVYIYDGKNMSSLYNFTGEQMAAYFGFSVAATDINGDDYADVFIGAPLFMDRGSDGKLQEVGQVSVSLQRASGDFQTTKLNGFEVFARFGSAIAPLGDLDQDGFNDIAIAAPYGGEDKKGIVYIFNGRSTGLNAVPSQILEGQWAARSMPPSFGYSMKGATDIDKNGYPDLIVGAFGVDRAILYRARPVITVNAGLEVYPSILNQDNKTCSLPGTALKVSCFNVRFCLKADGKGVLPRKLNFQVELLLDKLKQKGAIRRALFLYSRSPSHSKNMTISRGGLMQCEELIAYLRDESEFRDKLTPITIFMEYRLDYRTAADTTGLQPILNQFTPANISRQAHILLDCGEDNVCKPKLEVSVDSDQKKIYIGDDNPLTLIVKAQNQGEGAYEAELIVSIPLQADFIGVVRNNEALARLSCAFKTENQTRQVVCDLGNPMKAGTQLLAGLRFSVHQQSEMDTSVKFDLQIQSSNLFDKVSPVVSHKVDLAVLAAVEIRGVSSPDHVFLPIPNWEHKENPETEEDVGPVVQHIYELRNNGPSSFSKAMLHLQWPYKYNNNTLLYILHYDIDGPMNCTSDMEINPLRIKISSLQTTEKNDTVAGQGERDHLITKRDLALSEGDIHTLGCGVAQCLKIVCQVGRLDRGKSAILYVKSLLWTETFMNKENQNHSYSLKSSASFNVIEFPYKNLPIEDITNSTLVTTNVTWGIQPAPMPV
T2 sequence (P18084 24-719 limits assumed): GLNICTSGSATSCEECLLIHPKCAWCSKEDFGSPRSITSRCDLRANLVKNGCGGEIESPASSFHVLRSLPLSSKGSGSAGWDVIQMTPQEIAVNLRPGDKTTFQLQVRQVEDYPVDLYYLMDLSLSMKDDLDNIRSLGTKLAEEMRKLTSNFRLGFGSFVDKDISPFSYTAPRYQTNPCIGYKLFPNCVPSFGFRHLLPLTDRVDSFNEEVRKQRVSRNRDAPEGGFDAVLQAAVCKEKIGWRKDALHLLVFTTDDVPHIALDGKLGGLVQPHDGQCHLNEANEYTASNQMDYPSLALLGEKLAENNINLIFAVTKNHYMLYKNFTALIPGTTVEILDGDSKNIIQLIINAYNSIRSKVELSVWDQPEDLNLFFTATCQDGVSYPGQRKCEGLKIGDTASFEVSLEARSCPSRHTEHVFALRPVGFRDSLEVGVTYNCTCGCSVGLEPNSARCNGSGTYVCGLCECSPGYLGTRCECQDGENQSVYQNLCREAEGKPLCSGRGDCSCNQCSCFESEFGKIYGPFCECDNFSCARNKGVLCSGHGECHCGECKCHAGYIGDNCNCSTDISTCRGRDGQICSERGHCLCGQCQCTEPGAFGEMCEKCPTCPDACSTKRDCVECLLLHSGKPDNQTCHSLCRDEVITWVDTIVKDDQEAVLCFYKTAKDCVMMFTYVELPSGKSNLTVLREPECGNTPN

Cn1nc(CC(CC(=O)O)c2ccc3c(c2)OCCO3)cc1OCCc1ccc2c(n1)NCCC2 (stereo not shown) [Example 1, 3-(2,3-dihydrobenzo[b][1,4]dioxin-6-yl)-4-(1-methyl-5-(2-(5,6,7,8-tetrahydro-1,8-naphthyridin-2-yl)ethoxy)-1H-pyrazol-3-yl)butanoic Acid]
IC50 [1]: 229 nM
IC50 [2]: 0.9 nM

Cn1nc(CC(CC(=O)O)c2cc(F)cc(Cl)c2)cc1OCCc1ccc2c(n1)NCCC2 (stereo not shown) [Example 2, 3-(3-chloro-5-fluorophenyl)-4-(1-methyl-5-(2-(5,6,7,8-tetrahydro-1,8-naphthyridin-2-yl)ethoxy)-1H-pyrazol-3-yl)butanoic Acid]
IC50 [1]: 192 nM
IC50 [2]: 0.3 nM

COc1ccc(C(CC(=O)O)Cc2cc(OCCc3ccc4c(n3)NCCC4)n(C)n2)cc1F (stereo not shown) [Example 3, 3-(3-fluoro-4-methoxyphenyl)-4-(1-methyl-5-(2-(5,6,7,8-tetrahydro-1,8-naphthyridin-2-yl)-ethoxy)-1H-pyrazol-3-yl)butanoic Acid]
IC50 [1]: 114 nM
IC50 [2]: 0.4 nM

Cn1nc(CC(CC(=O)O)c2ccc(Br)c(F)c2)cc1OCCc1ccc2c(n1)NCCC2 (stereo not shown) [Example 4, 3-(4-bromo-3-fluorophenyl)-4-(1-methyl-5-(2-(5,6,7,8-tetrahydro-1,8-naphthyridin-2-yl)ethoxy)-1H-pyrazol-3-yl)butanoic Acid]
IC50 [1]: 343 nM
IC50 [2]: 0.5 nM

Cn1nc(CC(CC(=O)O)c2ccc(F)c(Br)c2)cc1OCCc1ccc2c(n1)NCCC2 (stereo not shown) [Example 5, 3-(3-bromo-4-fluorophenyl)-4-(1-methyl-5-(2-(5,6,7,8-tetrahydro-1,8-naphthyridin-2-yl)ethoxy)-1H-pyrazol-3-yl)butanoic Acid]
IC50 [1]: 140 nM
IC50 [2]: 0.4 nM

Cn1nc(CC(CC(=O)O)c2cccc(Br)c2)cc1OCCc1ccc2c(n1)NCCC2 (stereo not shown) [Example 6, 3-(3-bromophenyl)-4-(1-methyl-5-(2-(5,6,7,8-tetrahydro-1,8-naphthyridin-2-yl)ethoxy)-1H-pyrazol-3-yl)butanoic Acid]
IC50 [1]: 158 nM
IC50 [2]: 0.4 nM

Cn1nc(CC(CC(=O)O)c2ccc(F)c(C#N)c2)cc1OCCc1ccc2c(n1)NCCC2 (stereo not shown) [Example 7, 3-(3-cyano-4-fluorophenyl)-4-(1-methyl-5-(2-(5,6,7,8-tetrahydro-1,8-naphthyridin-2-yl)ethoxy)-1H-pyrazol-3-yl)butanoic Acid]
IC50 [1]: 224 nM
IC50 [2]: 0.6 nM

Cn1nc(CC(CC(=O)O)c2ccc(C#N)c(F)c2)cc1OCCc1ccc2c(n1)NCCC2 (stereo not shown) [Example 8]
IC50 [1]: 166 nM
IC50 [2]: 1 nM

Cn1nc(CC(CC(=O)O)c2cccc(C#N)c2)cc1OCCc1ccc2c(n1)NCCC2 (stereo not shown) [Example 9, 3-(3-cyanophenyl)-4-(1-methyl-5-(2-(5,6,7,8-tetrahydro-1,8-naphthyridin-2-yl)ethoxy)-1H-pyrazol-3-yl)butanoic Acid]
IC50 [1]: 110 nM
IC50 [2]: 0.2 nM

Cn1nc(CC(CC(=O)O)c2cc(Br)cc(C(F)(F)F)c2)cc1OCCc1ccc2c(n1)NCCC2 (stereo not shown) [Example 10, 3-(3-bromo-5-(trifluoromethyl)phenyl)-4-(1-methyl-5-(2-(5,6,7,8-tetrahydro-1,8-naphthyridin-2-yl)ethoxy)-1H-pyrazol-3-yl)butanoic Acid]
IC50 [1]: 120 nM
IC50 [2]: 1 nM

Cn1nc(CC(CC(=O)O)c2cc(Br)cc(OC(F)(F)F)c2)cc1OCCc1ccc2c(n1)NCCC2 (stereo not shown) [Example 11, 3-(3-bromo-5-(trifluoromethoxy)phenyl)-4-(1-methyl-5-(2-(5,6,7,8-tetrahydro-1,8-naphthyridin-2-yl)ethoxy)-1H-pyrazol-3-yl)butanoic Acid]
IC50 [1]: 150 nM
IC50 [2]: 0.8 nM

COc1ccc(C(F)(F)F)cc1C(CC(=O)O)Cc1cc(OCCc2ccc3c(n2)NCCC3)n(C)n1 (stereo not shown) [Example 13, 3-(2-methoxy-5-(trifluoromethyl)phenyl)-4-(1-methyl-5-(2-(5,6,7,8-tetrahydro-1,8-naphthyridin-2-yl)ethoxy)-1H-pyrazol-3-yl)butanoic Acid Trifluoroacetate]
IC50 [1]: 59 nM
IC50 [2]: 16 nM

COc1ccc(Br)cc1C(CC(=O)O)Cc1cc(OCCc2ccc3c(n2)NCCC3)n(C)n1 (stereo not shown) [Example 14, 3-(5-bromo-2-methoxyphenyl)-4-(1-methyl-5-(2-(5,6,7,8-tetrahydro-1,8-naphthyridin-2-yl)ethoxy)-1H-pyrazol-3-yl)butanoic acid trifluoroacetate]
IC50 [1]: 44 nM
IC50 [2]: 7.9 nM

COc1ccc([C@H](CC(=O)O)Cc2cc(OCCc3ccc4c(n3)NCCC4)n(C)n2)cc1F [Example 15, (3S)-3-(3-fluoro-4-methoxyphenyl)-4-(1-methyl-5-(2-(5,6,7,8-tetrahydro-1,8-naphthyridin-2-yl)ethoxy)-1H-pyrazol-3-yl)butanoic Acid]
IC50 [1]: 85 nM
IC50 [2]: 0.3 nM

Cn1nc(CC(CC(=O)O)c2cc(Br)cc(C(C)(C)C)c2)cc1OCCc1ccc2c(n1)NCCC2 (stereo not shown) [Example 16, 3-(3-bromo-5-tert-butyl-phenyl)-4-(1-methyl-5-(2-(5,6,7,8-tetrahydro-1,8-naphthyridin-2-yl)ethoxy)-1H-pyrazol-3-yl)butanoic Acid]
IC50 [1]: 30 nM
IC50 [2]: 3.1 nM

Cn1nc(CC(CC(=O)O)c2cc(C#N)cc(C(C)(C)C)c2)cc1OCCc1ccc2c(n1)NCCC2 (stereo not shown) [Example 17]
IC50 [1]: 11 nM
IC50 [2]: 0.4 nM

Cn1nc(CC(CC(=O)O)c2cc(C(C)(C)C)cc(C(C)(C)C)c2)cc1OCCc1ccc2c(n1)NCCC2 (stereo not shown) [Example 18, 3-(3,5-di-tert-butylphenyl)-4-[1-methyl-5-[2-(5,6,7,8-tetrahydro-1,8-naphthyridin-2-yl)ethoxyl]pyrazol-3-yl]butanoic Acid]
IC50 [1]: 6.4 nM
IC50 [2]: 180 nM

Cn1nc(CC(CC(=O)O)c2cc(Br)cc(C3(C(F)F)CC3)c2)cc1OCCc1ccc2c(n1)NCCC2 (stereo not shown) [Example 19, 3-(3-bromo-5-(1-(difluoromethyl)cyclopropyl)phenyl)-4-(1-methyl-5-(2-(5,6,7,8-tetrahydro-1,8-naphthyridin-2-yl)ethoxy)-1H-pyrazol-3-yl)butanoic Acid]
IC50 [1]: 15 nM
IC50 [2]: 1.2 nM

Cn1nc(CC(CC(=O)O)c2cc(C#N)cc(C3(C(F)F)CC3)c2)cc1OCCc1ccc2c(n1)NCCC2 (stereo not shown) [Example 20, 3-(3-cyano-5-(1-(difluoromethyl)cyclopropyl)phenyl)-4-(1-methyl-5-(2-(5,6,7,8-tetrahydro-1,8-naphthyridin-2-yl)ethoxy)-1H-pyrazol-3-yl)butanoic Acid]
IC50 [1]: 5.5 nM
IC50 [2]: 0.2 nM

Cn1nc(CC(CC(=O)O)c2cc(F)cc(C3(C(F)F)CC3)c2)cc1OCCc1ccc2c(n1)NCCC2 (stereo not shown) [Example 21, 3-(3-(1-(difluoromethyl)cyclopropyl)-5-fluorophenyl)-4-(1-methyl-5-(2-(5,6,7,8-tetrahydro-1,8-naphthyridin-2-yl)ethoxy)-1H-pyrazol-3-yl)butanoic Acid]
IC50 [1]: 12 nM
IC50 [2]: 0.2 nM

Cn1nc(CC(CC(=O)O)c2cc(Cl)cc(C3(C(F)F)CC3)c2)cc1OCCc1ccc2c(n1)NCCC2 (stereo not shown) [Example 22, 3-(3-chloro-5-(1-(difluoromethyl)cyclopropyl)phenyl)-4-(1-methyl-5-(2-(5,6,7,8-tetrahydro-1,8-naphthyridin-2-yl)ethoxy)-1H-pyrazol-3-yl)butanoic Acid]
IC50 [1]: 8.8 nM
IC50 [2]: 0.6 nM

Cn1nc(CC(CC(=O)O)c2cc(C(F)(F)F)cc(C3(C(F)F)CC3)c2)cc1OCCc1ccc2c(n1)NCCC2 (stereo not shown) [Example 23, 3-(3-(1-(difluoromethyl)cyclopropyl)-5-(trifluoromethyl)phenyl)-4-(1-methyl-5-(2-(5,6,7,8-tetrahydro-1,8-naphthyridin-2-yl)ethoxy)-1H-pyrazol-3-yl)butanoic Acid]
IC50 [1]: 8.8 nM
IC50 [2]: 6.5 nM

Cn1nc(CC(CC(=O)O)c2cc(F)cc(C(C)(C)C(F)(F)F)c2)cc1OCCc1ccc2c(n1)NCCC2 (stereo not shown) [Example 24, 3-(3-fluoro-5-(1,1,1-trifluoro-2-methylpropan-2-yl)phenyl)-4-(1-methyl-5-(2-(5,6,7,8-tetrahydro-1,8-naphthyridin-2-yl)ethoxy)-1H-pyrazol-3-yl)butanoic Acid]
IC50 [1]: 15 nM
IC50 [2]: 0.2 nM
